Data taken from US8426429B2, “2-amino-quinazoline derivatives useful as inhibitors of β-secretase (BACE)” (Jansssen Pharmaceutica N.V., priority 2004, dated 2013).

Target: T1, β-secretase (BACE) (Homo sapiens, UniProt P56817)
T1 construct: purchased Panvera
Assay: BACE FS1 % Inhibition Assay
Type: biochemical
Method: The following reagents were used in this assay: sodium acetate, PEG8000 (Sigma), DMSO, HEPES, FS1 substrate [[…]] […] The FS1-substrate stock solution was prepared in DMSO as a 10 mg/mL solution. The FS1-substrate working solution was prepared by diluting the 10 mg/mL stock solution with substrate assay buffer to a final concentration of 300 μg/mL. The β-secretase (BACE) working solution was prepared by diluting a 0.83 mg/mL BACE stock solution with enzyme assay buffer to a final concentration of 4 μg/mL. Test compounds were dissolved in DMSO to 10 mM. […] The screening procedure for this assay was as follows: 15 μL of BACE working solution was pipetted into each well of a 96-well plate. To each well was then pipetted 2 μL of test compound at the selected concentration. Test compound and BACE were then mixed with a pipettor and incubated for 20 min at room temperature. To each well was then added 10 μL of the FS1 substrate working solution. The plates were then incubated for 1 hour at room temperature. […] The procedure for the blank was as follows. 15 μL of assay buffer was pipetted into each well to be used as a blank control. To each well was then added 2 μL of vehicle and 10 μL of FS1-substrate working solution. The plates were then incubated for 1 hour at room temperature. […] The procedure for the positive control was as follows: 15 μL of BACE working solution was pipetted into each well to be used as a positive control. To each well was then pipetted 2 μL of vehicle. Vehicle and BACE were then mixed with a pipettor and incubated for 20 min at room temperature. To each well was then added 10 μL of the FS1 substrate working solution. The plates were then incubated for 1 hour at room temperature. […] For test compounds, % inhibition was determined at each concentration as follows: [formula]

T1 sequence (P56817 46-501): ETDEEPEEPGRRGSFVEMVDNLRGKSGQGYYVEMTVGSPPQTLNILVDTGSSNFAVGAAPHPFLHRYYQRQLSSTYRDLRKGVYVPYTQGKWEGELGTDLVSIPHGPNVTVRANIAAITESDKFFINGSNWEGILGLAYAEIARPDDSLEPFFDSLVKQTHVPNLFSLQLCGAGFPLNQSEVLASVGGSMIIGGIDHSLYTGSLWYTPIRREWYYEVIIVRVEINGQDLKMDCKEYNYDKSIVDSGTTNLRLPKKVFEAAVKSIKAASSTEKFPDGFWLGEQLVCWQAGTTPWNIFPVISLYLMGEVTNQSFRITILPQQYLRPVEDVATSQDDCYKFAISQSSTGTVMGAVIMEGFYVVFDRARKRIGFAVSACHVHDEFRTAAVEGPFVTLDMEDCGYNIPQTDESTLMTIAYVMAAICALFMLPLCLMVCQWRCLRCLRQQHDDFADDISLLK

SMILES | % Inhibition (FS) (0.3 μM test compound) | % Inhibition (FS) (1 μM test compound) | % Inhibition (FS) (3 μM test compound) | further results
CN(C(=O)CC[C@@H](C1CCOCC1)N1Cc2cc(Oc3ccccc3)ccc2N=C1N)[C@H]1CC[C@@H](C(=O)O)CC1 [Compound 748] |  |  |  | % Inhibition (FS) (0.3 μM compound, FS1 substrate, 0.3 µM): 20%; % Inhibition (FS) (1 μM compound, FS1 substrate, 1 µM): 71%; % Inhibition (FS) (3 μM compound, FS1 substrate, 3 µM): 97%
CSc1ccccc1-c1ccc2c(c1)CN(CCNC(=O)C1CCCCC1)C(N)=N2 [Compound 540] | <30% | 30% | 84% | 
NC1=Nc2ccc(Oc3ccccc3)cc2CN1CCNCC1CCCCC1 [Compound 427] | <30% | 26% | 62% | 
CC(C)c1ccccc1Oc1ccc2c(c1)CN(CCC(=O)NC1C3CC4CC(C3)CC1C4)C(N)=N2 (centres unmarked) [Compound 466] | <30% | <30% | 53% | 
CN(C(=O)c1cccc(CN2Cc3cc(Nc4ccc(N5CCOCC5)cc4)ccc3N=C2N)c1)C1CCCCC1 [Compound 439] | <30% | <30% | <30% | 
NC1=Nc2ccc(Oc3ccccc3)cc2CN1CC1CCN(C(=O)C2CCCCC2)CC1 [Compound 525] | <30% | <30% | 70% | 
CCc1ccccc1-c1ccc2c(c1)CN(Cc1cccc(C(=O)N(C)C3CCCCC3)c1)C(N)=N2 [Compound 320] | −31% | <30% | <30% | 
NC1=Nc2ccc(Oc3ccccc3)cc2CN1Cc1cccc(C(=O)NC2CCCCC2)c1 [Compound 451] | <30% | <30% | <30% | 
CCCC=Cc1ccc2c(c1)CN(CCNC(=O)CC1CCCC1)C(N)=N2 [Compound 580] | <30% | <30% | <30% | 
Cc1cc(C(=O)NCCN2Cc3cc(-c4cccc(C(F)(F)F)c4)ccc3N=C2N)c(C)o1 [Compound 590] | <30% | <30% | <30% | 
CCCC(=O)NCCN1Cc2cc(-c3cnc4ccccc4c3)ccc2N=C1N [Compound 673] |  |  |  | % Inhibition (FS) (0.3 μM compound, FS1 substrate): 34%; % Inhibition (FS) (1 μM compound, FS1 substrate): <30%; % Inhibition (FS) (3 μM compound, FS1 substrate): <30%
NC1=Nc2ccc(-c3ccccc3F)cc2CN1CCNC(=O)C1CCCC1 [Compound 643] | 74% | 92% | 110% | 
CN(C(=O)c1cccc(CN2Cc3cc(Oc4ccc5c(c4)CCCC5)ccc3N=C2N)c1)C1CCCCC1 [Compound 233] | <30% | 32% | 36% | 
COC1CCCC(C(=O)NCCN2Cc3cc(-c4ccccc4C)ccc3N=C2N)C1 (centres unmarked) [Compound 696] |  |  |  | % Inhibition (FS) (0.3 μM compound, FS1 substrate): <30%; % Inhibition (FS) (1 μM compound, FS1 substrate): 72%
Cc1ccc(Sc2ccc3c(c2)CN(Cc2cccc(C(=O)N(C)C4CCCCC4)c2)C(N)=N3)cc1C [Compound 408] | <30% | 34% | 95% | 
CN(C(=O)CCC(C1CCOCC1)N1Cc2cc(Oc3ccccc3)ccc2N=C1N)C1CCC(C(=O)O)CC1 (centres unmarked) [Compound 743] |  |  |  | % Inhibition (FS) (3 μM compound, FS1 substrate): 130%
COc1cccc(F)c1-c1ccc2c(c1)CN(CCNC(=O)C1CCC(C(F)(F)F)CC1)C(N)=N2 (centres unmarked) [Compound 700] |  |  |  | % Inhibition (FS) (0.3 μM compound, FS1 substrate): <30%; % Inhibition (FS) (1 μM compound, FS1 substrate): 36%; % Inhibition (FS) (3 μM compound, FS1 substrate): 85%
CCCCCC1CC2(C(=O)NCCN3Cc4cc(Oc5ccccc5)ccc4N=C3N)CCC1CC2 (centres unmarked) [Compound 194] | <30% | 42% | 38% | 

SMILES | % Inhibition (FS) (0.3 μM test compound) | % Inhibition (FS) (1 μM test compound) | % Inhibition (FS) (3 μM test compound) | further results
CC(C)C(CC(=O)N(C)C1CCCCC1)N1Cc2cc(Oc3ccccc3)ccc2N=C1N (centres unmarked) [Compound 201] | <30% | <30% | 66% | 
CCC(c1cccc(C(=O)N(C)C2CCCCC2)c1)N1Cc2cc(-c3ccccc3OC)ccc2N=C1N (centres unmarked) [Compound 395] | 69% | 107% | 118% | 
CN(C(=O)c1ccc2c(c1)C(N1Cc3cc(Oc4ccccc4)ccc3N=C1N)CC2)C1CCCCC1 (centres unmarked) [Compound 145] |  |  | <30% | % Inhibition (FS) (10 μM test compound): 37%
NC1=Nc2ccc(Oc3ccccc3)cc2CN1[C@@H](CCC(=O)N[C@@H](CO)C(=O)O)C1CCOCC1 [Compound 771] |  |  |  | % Inhibition (FS) (0.3 μM compound, FS1 substrate): 46%; % Inhibition (FS) (1 μM compound, FS1 substrate): 79%; % Inhibition (FS) (3 μM compound, FS1 substrate): 105%
CCCCCCCCC(CCC(=O)NC1CCCCCC1)N1Cc2cc(Oc3ccccc3)ccc2N=C1N (centres unmarked) [Compound 208] | <30% | <30% | 67% | 
CC(C)(C)C(=O)NCCN1Cc2cc(-c3ccccc3F)ccc2N=C1N [Compound 646] | 52% | 72% | 97% | 
CN(C(=O)c1cccc(CN2Cc3cc(Oc4ccccc4C(=O)N4CCCC4)ccc3N=C2N)c1)C1CCCCC1 [Compound 483] | <30% | <30% | <30% | 
CC(=O)Nc1ccc(C(=O)NCCN2Cc3cc(-c4cccc(C(F)(F)F)c4)ccc3N=C2N)cc1 [Compound 594] | <30% | <30% | <30% | 
CN(C(=O)CC(C1CCCCC1)N1Cc2cc(Oc3ccccc3)ccc2N=C1N)C1CCCCC1 (centres unmarked) [Compound 199] | <30% | <30% | 82% | 
CN(Cc1cc(-c2ccccc2)on1)C(=O)CC[C@@H](C1CCCCC1)N1Cc2cc(-c3ccccc3F)ccc2N=C1N [Compound 724] |  |  |  | % Inhibition (FS) (0.3 μM compound, FS1 substrate): 38%; % Inhibition (FS) (1 μM compound, FS1 substrate): <30%; % Inhibition (FS) (3 μM compound, FS1 substrate): 65%
NC1=Nc2ccc(-c3ccc4ccccc4c3)cc2CN1CCNC(=O)C12CC3CC(CC(C3)C1)C2 [Compound 665] |  |  |  | % Inhibition (FS) (0.3 μM compound, FS1 substrate): 35%; % Inhibition (FS) (1 μM compound, FS1 substrate): <30%; % Inhibition (FS) (3 μM compound, FS1 substrate): <30%
CN(C(=O)c1cccc(CN2Cc3cc(OCC4CCCC4)ccc3N=C2N)c1)C1CCCCC1 [Compound 521] | <30% | <30% | <30% | 
CN(C(=O)CCC(C1CCCCC1)N1Cc2cc(Oc3ccccc3)ccc2N=C1N)c1ccc(C(=O)O)cc1 (centres unmarked) [Compound 766] |  |  |  | % Inhibition (FS) (0.3 μM compound, FS1 substrate): <30%; % Inhibition (FS) (1 μM compound, FS1 substrate): <30%; % Inhibition (FS) (3 μM compound, FS1 substrate): <30%
CC1CCN(C(=O)CCCC(CCC(=O)N2CCC(C)CC2)N2Cc3cc(Oc4ccccc4)ccc3N=C2N)CC1 (centres unmarked) [Compound 532] | <30% | <30% | 68% | 
CC(C)CCC(=O)NC[C@@H](C(C)C)N1Cc2cc(Oc3ccccc3)ccc2N=C1N [Compound 564] | 112% | 119% | 129% | 
COc1ccccc1-c1ccc2c(c1)CN(CCNC(=O)C1CCOCC1)C(N)=N2 [Compound 697] |  |  |  | % Inhibition (FS) (0.3 μM compound, FS1 substrate): <30%; % Inhibition (FS) (1 μM compound, FS1 substrate): <30%; % Inhibition (FS) (3 μM compound, FS1 substrate): 63%
CC(C)c1ccc(Sc2ccc3c(c2)CN(Cc2cccc(C(=O)N(C)C4CCCCC4)c2)C(N)=N3)cc1 [Compound 407] | <30% | <30% | 48% | 
CC(C)(C)OC(=O)N1CCC(CN2Cc3cc(Oc4ccccc4)ccc3N=C2N)CC1 [Compound 509] | <30% | <30% | 41% | 
